Results on five compounds are retold here after patent US20180334447A1, “2,3,4,5-TETRAHYDROPYRIDIN-6-AMINE DERIVATIVES” (JANSSEN PHARMACEUTICA NV, priority 2015, published 2018).

SMILES strings stand for the structures.

For data set [1], the system named is Abeta 1-42 produced and secreted into the medium of human neuroblastoma SKNBE2 cells. Kind of data set: Cellular αLisa assay in SKNBE2 cells, Abeta 42. It is filed as cell-based. The conditions noted are these: SKNBE2 cells expressing hAPP695, incubated for 18 hours; for IC50: Homo sapiens, SKNBE2, 18 h, read-out: Cellular αLisa assay in SKNBE2 cells Abeta 42 pIC50 (converted). The method, then: In two αLisa assays the levels of Abeta 1-42 produced and secreted into the medium of human neuroblastoma SKNBE2 cells are quantified. The assay is based on the human neuroblastoma SKNBE2 expressing the wild type Amyloid Precursor Protein (hAPP695). The compounds are diluted and added to these cells, incubated for 18 hours and then measurements of Abeta 1-42 are taken. Abeta 1-42 are measured by sandwich αLisa. αLisa is a sandwich assay using biotinylated antibody AbN/25 attached to streptavidin coated beads and antibody cAb42/26 conjugated acceptor beads for the detection of Abeta 1-42 respectively. In the presence of Abeta 1-42, the beads come into close proximity. The excitation of the donor beads provokes the release of singlet oxygen molecules that trigger a cascade of energy transfer in the acceptor beads, resulting in light emission. Light emission is measured after 1 hour incubation (excitation at […] and emission at 615 nm).
(§1) A best-fit curve is fitted by a minimum sum of squares method to the plot of % Controlmin versus compound concentration. From this an IC50 value (inhibitory concentration causing 50% inhibition of activity) can be obtained.

Data set [2] has as its target T1, recombinant BACE1 protein (Homo sapiens, UniProt P56817).
T1 construct: recombinant BACE1 protein in a final concentration of 1 μg/ml
Kind of data set: BACE1 biochemical FRET based assay - Method 1. The conditions noted are these: BACE1, 120 minutes at room temperature, pH 5.0; read-out: Biochemical FRET based assay - Method 1 pIC50 (converted).
Text: (§2) This assay is a Fluorescence Resonance Energy Transfer Assay (FRET) based assay. The substrate for this assay is an APP derived 13 amino acids peptide that contains the ‘Swedish’ Lys-Met/Asn-Leu mutation of the amyloid precursor protein (APP) beta-secretase cleavage site. This substrate also contains two fluorophores: (7-methoxycoumarin-4-yl) acetic acid (Mca) is a fluorescent donor with excitation wavelength at 320 nm and emission at 405 nm and 2,4-Dinitrophenyl (Dnp) is a proprietary quencher acceptor. […] Upon cleavage by BACE1, the fluorophore Mca is separated from the quenching group Dnp, restoring the full fluorescence yield of the donor. The increase in fluorescence is linearly related to the rate of proteolysis.
Briefly in a 384-well format recombinant BACE1 protein in a final concentration of 1 μg/ml is incubated for 120 minutes at room temperature with 10 μm substrate in incubation buffer (40 mM Citrate buffer pH 5.0, 0.04% PEG, 4% DMSO) in the absence or presence of compound. Next the amount of proteolysis is directly measured by fluorescence measurement at T=0 and T=120 (excitation at 320 nm and emission at 405 nm). Results are expressed in RFU (Relative Fluorescence Units), as difference between T120 and T0.
as §1

Data set [3] has as its target T2, recombinant BACE2 protein (Homo sapiens, UniProt Q9Y5Z0).
T2 construct: recombinant BACE2 protein in a final concentration of 0.4 μg/ml
T2 sequence (Q9Y5Z0 63-518): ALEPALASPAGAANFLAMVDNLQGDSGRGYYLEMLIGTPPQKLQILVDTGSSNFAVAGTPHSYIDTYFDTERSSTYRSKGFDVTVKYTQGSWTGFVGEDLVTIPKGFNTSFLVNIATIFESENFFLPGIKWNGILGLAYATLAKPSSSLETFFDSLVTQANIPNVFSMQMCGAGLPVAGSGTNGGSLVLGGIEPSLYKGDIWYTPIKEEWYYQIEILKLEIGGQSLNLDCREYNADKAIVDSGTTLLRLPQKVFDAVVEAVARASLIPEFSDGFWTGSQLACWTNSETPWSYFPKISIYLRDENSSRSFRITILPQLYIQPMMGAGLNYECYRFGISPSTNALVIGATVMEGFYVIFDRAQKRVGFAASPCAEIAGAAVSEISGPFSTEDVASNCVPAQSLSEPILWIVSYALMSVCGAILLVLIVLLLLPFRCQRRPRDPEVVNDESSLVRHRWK
Put plainly: BACE2 biochemical FRET based assay. The conditions noted are these: BACE2, 450 minutes at room temperature, pH 5.0; read-out: Biochemical FRET based assay pIC50 (converted).
Text: as §2, with “assay” for “assay is an APP derived 13 amino acids peptide that”, “the beta-secretase,” for “BACE1,”
Briefly in a 384-well format recombinant BACE2 protein in a final concentration of 0.4 μg/ml is incubated for 450 minutes at room temperature with 10 μM substrate in incubation buffer (50 mM Citrate buffer pH 5.0, 0.05% PEG, no DMSO) in the absence or presence of compound. Next the amount of proteolysis is directly measured by fluorescence measurement at T=0 and T=450 (excitation at 320 nm and emission at 405 nm). Results are expressed in RFU (Relative Fluorescence Units), as difference between T450 and T0.
as §1

Data set [4] deals with Abeta 1-37, Abeta 1-38, Abeta 1-40 and Abeta 1-42 in CSF. Put plainly: Pharmacology in the Beagle dog: beta-amyloid profile in cerebrospinal fluid (CSF) after a single dose. The conditions noted are these: for inhibition in vivo at 0.31 mg/kg: single dose 0.31 mg/kg. The class given is in vivo. The method, then:
Test compounds were tested to evaluate the effect on the beta-amyloid profile in cerebrospinal fluid (CSF) of dogs after a single dose, in combination with pharmacokinetic (PK) follow up and limited safety evaluation.
For each of compound 20, 21, 22 or 41, four beagle dogs (2 males, 2 females) were dosed with vehicle (1 ml/kg of an aqueous solution of 20% cyclodextrin) and 12 beagle dogs (2 males and 2 females per dosage group) were dosed with test compounds as follows:
In the case of compounds 39, 33 and 31, two beagle dogs (1 male, 1 female) were dosed with vehicle (1 ml/kg of an aqueous solution of 20% cyclodextrin) and 4 beagle dogs (2 males and 2 females) were dosed with test compound […] (0.31 mg/kg in 0.31 mg/ml of an aqueous 20% cyclodextrin solution) on an empty stomach.
Eight hours after dosing the animals got access to their regular meal for 30 minutes. Blood was taken for PK follow up (0.5, 1, 2, 4, 8, 25 and 49 hours) and serum samples for biochemistry were taken before and at 8 and 25 h after dosing. The CSF samples were used for measurement of Abeta 1-37, Abeta 1-38, Abeta 1-40 and Abeta 1-42.

Data set [5] has as its system Abetatotal in human neuroblastoma SKNBE2 cells. Put plainly: Cellular αLisa assay in SKNBE2 cells, Abetatotal. The following applies: SKNBE2 cells expressing hAPP695, incubated for 18 hours; for IC50: Homo sapiens, SKNBE2, 18 h, read-out: Cellular αLisa assay in SKNBE2 cells Abetatotal pIC50 (converted). The class given is cell-based.
The mark [6] stands for this setting: Canis lupus familiaris, 8 h post dosing, read-out: % Decrease in Abeta 1-42 at 8 h post dosing compared to own baseline.

T1 sequence (P56817 46-501): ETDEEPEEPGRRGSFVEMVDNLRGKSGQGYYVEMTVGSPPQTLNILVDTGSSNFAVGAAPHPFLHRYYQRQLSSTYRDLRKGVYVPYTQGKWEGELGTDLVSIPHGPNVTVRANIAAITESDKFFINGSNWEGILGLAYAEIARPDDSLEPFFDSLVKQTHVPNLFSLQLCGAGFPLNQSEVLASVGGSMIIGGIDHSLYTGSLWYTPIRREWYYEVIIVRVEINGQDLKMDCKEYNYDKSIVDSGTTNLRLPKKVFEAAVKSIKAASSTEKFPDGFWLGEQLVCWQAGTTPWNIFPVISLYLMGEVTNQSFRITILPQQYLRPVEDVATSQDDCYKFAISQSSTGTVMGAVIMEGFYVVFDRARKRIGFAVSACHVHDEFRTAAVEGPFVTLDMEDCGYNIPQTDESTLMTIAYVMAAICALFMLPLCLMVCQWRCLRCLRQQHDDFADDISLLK

With `COc1cnc(C(=O)Nc2ccc(F)c([C@]3(C)CC[C@](C)(S(C)(=O)=O)C(N)=N3)c2)cn1` [Compound 9], the melting point (usually the temperature of the solid-liquid transition) was 214.97 °C. Also, in data set [1], the IC50 was 28.8 nM. Also, in data set [2], the IC50 is 77.6 nM. Besides, the IC50 in data set [3] was 513 nM.
In the case of `COc1cnc(C(=O)Nc2ccc(F)c([C@]3(CF)CC[C@@](C)(S(C)(=O)=O)C(N)=N3)c2)cn1` [Compound 2], the melting point stood at 122.96 °C. Moreover, the IC50 in data set [1] is 1.48 nM. Besides, the IC50 in data set [2] is 2.29 nM. Moreover, in data set [4] (setting [6]), the inhibition in vivo at 0.31 mg/kg is 56%. Further, the IC50 in data set [3] is 13.8 nM.
Regarding `CC1(S(C)(=O)=O)CCC(CF)(c2cc(NC(=O)c3cnc(OC(F)F)cn3)ccc2F)N=C1N` (centres unmarked) [Compound 32], the IC50 is 0.398 nM in data set [1], 1.05 nM in data set [2], 0.309 nM in data set [5] and 11.5 nM in data set [3]. In addition, in data set [4] (setting [6]), the inhibition in vivo at 0.31 mg/kg came out at 76%.
In the case of `CC(C)S(=O)(=O)C1(C)CCC(CF)(c2cc(NC(=O)c3ccc(F)cn3)ccc2F)N=C1N` (single isomer, unassigned) [Compound 33], in data set [1], the “Cellular αLisa assay in SKNBE2 cells Abeta 42 pIC50” value is reported as 8.32. For the same compound, the IC50 in data set [2] was 4.27 nM; in data set [3] it was 3.55 nM. In addition, in data set [4] (setting [6]), the inhibition in vivo at 0.31 mg/kg came out at 34%. The “Cellular αLisa assay in SKNBE2 cells Abetatotal pIC50” value in data set [5] turned out to be 8.37.
For the compound `C[C@@]1(S(C)(=O)=O)CC[C@@](CF)(c2cc(NC(=O)c3ccc(F)cn3)ccc2F)N=C1N` [Compound 20], the IC50 in data set [1] was 2.51 nM; in data set [2], 3.02 nM; in data set [5], 2.57 nM; in data set [3] it was 3.02 nM. For the same compound, the inhibition in vivo at 0.16 mg/kg in data set [4] (Canis lupus familiaris, single dose 0.16 mg/kg, 8 h post dosing, read-out: % Decrease in Abeta 1-42 at 8 h post dosing compared to own baseline) is 54%. The inhibition in vivo at 0.63 mg/kg in data set [4] (Canis lupus familiaris, single dose 0.63 mg/kg, 8 h post dosing, read-out: % Decrease in Abeta 1-42 at 8 h post dosing compared to own baseline) amounted to 75%. Moreover, the inhibition in vivo at 1.25 mg/kg in data set [4] (Canis lupus familiaris, single dose 1.25 mg/kg, 8 h post dosing, read-out: % Decrease in Abeta 1-42 at 8 h post dosing compared to own baseline) amounted to 77%. The “% Decrease in Abeta 1-42 at 24 h^(a) or 25 h^(b) post dosing compared to own baseline” value in data set [4] (single dose 0.16 mg/kg, 24 h post dosing (a)) is 44^(a) %. The “% Decrease in Abeta 1-42 at 49 h post dosing compared to own baseline” value in data set [4] (single dose 0.63 mg/kg) was found to be 29%; in data set [4] (single dose 1.25 mg/kg), 65%.
